Assay results: US9028797B2, “Composite body for antigen or drug delivery” (priority 2010, dated 2015)

What was measured:
[1] = tested on: dendritic cell line, DC2.4 cell; assay: Cellular uptake of fluorescently labeled BSA, fluorescence microscopy (Example 3); format: cell-based; details: incubated 2 hr, imaged 22 hr later
Procedure: As a model protein, bovine serum albumin (BSA) was fluorescently labeled with rhodamine B isothiocyanate and used. A BSA/BAC/γ-PGA complex prepared using benzalkonium chloride (BAC) and γ-PGA with BSA or BSA was added to a dendritic cell line, DC2.4 cell, and the mixture was incubated for 2 hr. The cells were washed and fluorescence images of the cell were measured by a fluorescence microscope 22 hr later.

[2] = tested on: OVA-expressing cancer cell (EG7); assay: Tumor growth of intradermally transplanted OVA-expressing cancer cell after immunization (Example 14); format: in vivo, mice; details: EG7 intradermally transplanted 2 weeks after final immunization
Procedure: OVA/BK/γ-PGA complex was constructed using ovalbumin (OVA), benzalkonium chloride (BK) and γ-PGA. To the mice were administered OVA alone, benzalkonium chloride and γ-PGA (vector alone), and OVA/BK/γ-PGA complex every other week, 4 times in total. After 2 weeks from the final immunization, OVA-expressing cancer cell (EG7) was intradermally transplanted, and the tumor growth after transplantation was observed.

OVA = assay: Antibody titer to OVA by ELISA in serum of immunized mice (Example 13); format: in vivo; details: mouse serum 2 weeks after final immunization; every other week, 4 times
Procedure: OVA/BK/γ-PGA complex was constructed using ovalbumin (OVA), benzalkonium chloride (BK) and γ-PGA. OVA alone, benzalkonium chloride and γ-PGA (vector alone), and OVA/BK/γ-PGA complex were administered to mice every other week, 4 times in total for immunization. After 2 weeks from the final immunization, the serum was collected, and the antibody titer to OVA was measured by ELISA. For the measurement of the antibody titer, an HRP-labeled goat-derived anti-mouse IgG antibody was used as the secondary antibody.

Substance	cellular uptake by dendritic cell (fluorescence of BSA) [1]	tumor growth suppressive effect [2]	antibody titer to OVA (immunity induction effect) (OVA)
bovine serum albumin [BSA]	not observed	–	–
ovalbumin [ovalbumin antigen alone]	–	did not show a tumor growth suppressive effect	did not show an immunity induction effect
